Measurements reported in ChEMBL document CHEMBL1201862, “PubChem BioAssay data set” (2004).
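Briefly, cells in 96-well plates were exposed to five compound concentrations for 48 h, and endpoints were estimated by linear interpolation. GI50 is the concentration that inhibits growth by half.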 Calls of active or inactive are those of the source. No stated cut-off is given here; in the data, active = GI50 up to about 1.1 µM and inactive = higher.

Tests used:
Assay in all cases: NCI anticancer screen, dose series, 48 h
786-0 = test system: 786-0
COLO 205 = test system: COLO 205
HCT-116 = test system: HCT-116
HCT-15 = test system: HCT-15
HOP-92 = test system: HOP-92
KM12 = test system: KM12
MCF7 = test system: MCF7
NCI-H23 = test system: NCI-H23
NCI-H522 = test system: NCI-H522
OVCAR-4 = test system: OVCAR-4
OVCAR-5 = test system: OVCAR-5
PC-3 = test system: PC-3
SF-295 = test system: SF-295
SK-MEL-5 = test system: SK-MEL-5
SK-OV-3 = test system: SK-OV-3
SN12C = test system: SN12C
UO-31 = test system: UO-31
A498 = test system: A498
CCRF-CEM = test system: CCRF-CEM
HCC 2998 = test system: HCC 2998

Compound | GI50 (786-0) | GI50 (COLO 205) | GI50 (HCT-116) | GI50 (HCT-15) | GI50 (HOP-92) | GI50 (KM12) | GI50 (MCF7) | GI50 (NCI-H23) | GI50 (NCI-H522) | GI50 (OVCAR-4) | GI50 (OVCAR-5) | GI50 (PC-3) | GI50 (SF-295) | GI50 (SK-MEL-5) | GI50 (SK-OV-3) | GI50 (SN12C) | GI50 (UO-31) | GI50 (A498) | GI50 (CCRF-CEM) | GI50 (HCC 2998)
O=C(CSCC(=O)N/N=C\c1cc(Br)cc(Br)c1O)N/N=C\c1cc(Br)cc(Br)c1O | 32.5 µM (inactive) | 33.7 µM (inactive) | 19.6 µM (inactive) | 22.5 µM | 19.5 µM (inactive) | 25.4 µM (inactive) | 44.8 µM (inactive) | 48.4 µM (inactive) | 11.7 µM (inactive) | 14.4 µM (inactive) | > 100 µM (inactive) | 23.7 µM (inactive) | 33.6 µM (inactive) | 25 µM (inactive) | 53.5 µM (inactive) | 27.8 µM (inactive) | 15.7 µM (inactive) |  |  | 
CCn1c(SCC(=O)NNC(=S)Nc2ccc(F)cc2)nc2ccccc2c1=O | > 100 µM (inactive) | > 100 µM (inactive) | > 100 µM (inactive) | 74.6 µM |  | > 100 µM (inactive) | > 100 µM (inactive) | > 100 µM (inactive) | 48 µM (inactive) | 63 µM (inactive) | > 100 µM (inactive) | 66.1 µM (inactive) | > 100 µM (inactive) | > 100 µM (inactive) | > 100 µM (inactive) | > 100 µM (inactive) | 17.9 µM (inactive) | > 100 µM (inactive) | > 100 µM (inactive) | > 100 µM (inactive)
CCOC(=O)c1c(N)sc2c1C(C(=O)OCC)CC2 (stereo not drawn) | > 100 µM (inactive) | > 100 µM (inactive) | 48.4 µM (inactive) | > 100 µM | > 100 µM (inactive) | > 100 µM (inactive) | > 100 µM (inactive) | > 100 µM (inactive) |  |  | > 100 µM (inactive) | 34.4 µM (inactive) |  | > 100 µM (inactive) |  | 40.5 µM (inactive) | 62.4 µM (inactive) | 14.3 µM (inactive) |  | > 100 µM (inactive)
COc1ccc2c(c1)C(=O)CC(N)C2 (stereo not drawn) | > 100 µM (inactive) | > 100 µM (inactive) | > 100 µM (inactive) | > 100 µM | > 100 µM (inactive) | > 100 µM (inactive) | > 100 µM (inactive) | > 100 µM (inactive) | > 100 µM (inactive) | > 100 µM (inactive) | > 100 µM (inactive) | 42 µM (inactive) | > 100 µM (inactive) | > 100 µM (inactive) | > 100 µM (inactive) | > 100 µM (inactive) | 40.6 µM (inactive) |  | 64.9 µM (inactive) | 47.6 µM (inactive)
Clc1ccc2nc3c(c(-c4ccccc4)nn3-c3ccccc3)c(-c3ccccc3)c2c1 | > 100 µM (inactive) | > 100 µM (inactive) | > 100 µM (inactive) | > 100 µM | > 100 µM (inactive) | > 100 µM (inactive) | > 100 µM (inactive) | > 100 µM (inactive) | > 100 µM (inactive) | > 100 µM (inactive) | > 100 µM (inactive) | > 100 µM (inactive) | > 100 µM (inactive) | > 100 µM (inactive) | > 100 µM (inactive) | > 100 µM (inactive) | > 100 µM (inactive) |  | > 100 µM (inactive) | > 100 µM (inactive)
Cc1ncc([N+](=O)[O-])n1CCN(C)CCCCn1ccnc1[N+](=O)[O-] | > 100 µM (inactive) | > 100 µM (inactive) | > 100 µM (inactive) | > 100 µM |  | > 100 µM (inactive) | > 100 µM (inactive) | > 100 µM (inactive) |  | > 100 µM (inactive) | > 100 µM (inactive) | > 100 µM (inactive) | > 100 µM (inactive) | > 100 µM (inactive) | > 100 µM (inactive) | > 100 µM (inactive) | > 100 µM (inactive) | > 100 µM (inactive) | > 100 µM (inactive) | > 100 µM (inactive)
COC(=O)/C=C1\C(CO[Si](C)(C)C(C)(C)C)OC(n2cc(C)c(=O)n(C)c2=O)C1O[Si](C)(C)C(C)(C)C (stereo not drawn) | > 100 µM (inactive) | > 100 µM (inactive) | 71.4 µM (inactive) | > 100 µM | > 100 µM (inactive) | > 100 µM (inactive) | 27 µM (inactive) | > 100 µM (inactive) | 78 µM (inactive) |  | > 100 µM (inactive) | 48.5 µM (inactive) | > 100 µM (inactive) | 69.7 µM (inactive) | > 100 µM (inactive) | > 100 µM (inactive) | > 100 µM (inactive) | > 100 µM (inactive) | > 100 µM (inactive) | 
O=C1c2cc(Cl)ccc2N=C(NCCCl)C2CSCN12 (stereo not drawn) | > 100 µM (inactive) | > 100 µM (inactive) | > 100 µM (inactive) | > 100 µM |  | > 100 µM (inactive) | > 100 µM (inactive) |  | 24.3 µM (inactive) | > 100 µM (inactive) | > 100 µM (inactive) | > 100 µM (inactive) | > 100 µM (inactive) | > 100 µM (inactive) | > 100 µM (inactive) | > 100 µM (inactive) | > 100 µM (inactive) | > 100 µM (inactive) | 78.7 µM (inactive) | > 100 µM (inactive)
